Assay results as given in ChEMBL document CHEMBL1221278, “Design, synthesis, and cholesterol-lowering efficacy for prodrugs of berberrubine” (Bioorg Med Chem, 2010).
Calls of active or inactive are those of the source. The rule behind the calls is not given here.

Assays:
[1] = Lipophilicity, log P of the compound; assay type: physicochemical; details: octanol/water
HepG2 = test: Upregulation of LDLR mRNA expression in human HepG2 cells by RT-PCR; assay type: functional, cell-based
Rattus norvegicus [2] = test: Hypolipidemic activity in high fat high cholesterol diet fed Sprague-Dawley rat hyperlipidemic model assessed as reduction in LDL cholesterol 100 mg/kg, po qd for 28 days; parameters: scale not given: the % may be the effect or the level left
Rattus norvegicus [3] = test: Hypolipidemic activity in high fat high cholesterol diet fed Sprague-Dawley rat hyperlipidemic model assessed as reduction in total cholesterol 100 mg/kg, po qd for 28 days; parameters: scale not given: the % may be the effect or the level left
Rattus norvegicus [4] = test: Toxicity in high fat high cholesterol diet fed Sprague-Dawley rat hyperlipidemic model assessed as weight loss at 100 mg/kg, po qd for 28 days; details: in vivo, 672 h
Rattus norvegicus [5] = test: Toxicity in high fat high cholesterol diet fed Sprague-Dawley rat hyperlipidemic model assessed as reduction in food intake at 100 mg/kg, po qd for 28 days; details: in vivo, 672 h
Rattus norvegicus [6] = test: Toxicity in high fat high cholesterol diet fed Sprague-Dawley rat hyperlipidemic model assessed as liver of kidney function abnormalities at 100 mg/kg, po qd for 28 days; details: in vivo, 672 h

| logP [1] | Compound | Activity (HepG2) | other results |
| --- | --- | --- | --- |
| -1.18 | CCOC(=O)Oc1c(OC)ccc2cc3[n+](cc12)CCc1cc2c(cc1-3)OCO2 | inactive | – |
| 2.74 | CCCCCCCCCC(=O)Oc1c(OC)ccc2cc3[n+](cc12)CCc1cc2c(cc1-3)OCO2 | inactive | – |
| 1.03 | COc1ccc2cc3[n+](cc2c1OC(=O)/C=C/c1ccccc1)CCc1cc2c(cc1-3)OCO2 | inactive | – |
| 5.91 | CCCCCCCCCCCCCCCC(=O)Oc1c(OC)ccc2cc3[n+](cc12)CCc1cc2c(cc1-3)OCO2.[Cl-] | inactive | Activity (Rattus norvegicus [2]): 45.5%; Activity (Rattus norvegicus [4]): Non-toxic; Activity (Rattus norvegicus [3]): 35.8%; Activity (Rattus norvegicus [5]): Non-toxic; Activity (Rattus norvegicus [6]): Non-toxic |
| 1.69 | CCCCCCCC(=O)Oc1c(OC)ccc2cc3[n+](cc12)CCc1cc2c(cc1-3)OCO2 | inactive | – |
| 0.97 | COc1ccc2cc3[n+](cc2c1OCOC(=O)c1ccccc1)CCc1cc2c(cc1-3)OCO2 | inactive | – |
| -0.25 | COc1ccc2cc3[n+](cc2c1OC(=O)C(C)(C)C)CCc1cc2c(cc1-3)OCO2 | inactive | – |

More lines, now with the values behind:

| Compound | logP [1] | Activity (HepG2) | other results |
| --- | --- | --- | --- |
| CCCC(=O)Oc1c(OC)ccc2cc3[n+](cc12)CCc1cc2c(cc1-3)OCO2 | -0.43 | inactive | – |
| CCCCC(=O)Oc1c(OC)ccc2cc3[n+](cc12)CCc1cc2c(cc1-3)OCO2 | 0.1 | inactive | – |
| COc1ccc2cc3[n+](cc2c1OCOC(=O)C(C)(C)C)CCc1cc2c(cc1-3)OCO2 | -0.06 | inactive | – |
| COc1ccc2cc3[n+](cc2c1OC)CCc1cc2c(cc1-3)OCO2.[Cl-] [BERBERINE CHLORIDE] | -0.92 | – | Activity (Rattus norvegicus [2]): 38%; Activity (Rattus norvegicus [3]): 27.4% |
| COc1ccc2cc3[n+](cc2c1O)CCc1cc2c(cc1-3)OCO2 [BERBERRUBINE CHLORIDE] | -1.06 | – | – |
| CCCCCCC(=O)Oc1c(OC)ccc2cc3[n+](cc12)CCc1cc2c(cc1-3)OCO2 | 1.16 | inactive | – |
| CCCCCCCCCCCCCCCCCC(=O)Oc1c(OC)ccc2cc3[n+](cc12)CCc1cc2c(cc1-3)OCO2 | 6.98 | inactive | – |
| COc1ccc2cc3[n+](cc2c1OC(=O)c1ccccc1)CCc1cc2c(cc1-3)OCO2 | 0.58 | inactive | – |
| CCCCCCCCCCCC(=O)Oc1c(OC)ccc2cc3[n+](cc12)CCc1cc2c(cc1-3)OCO2 | 3.8 | inactive | – |
